Measurements reported in patent US8338597B2, “Pyridones useful as inhibitors of kinases” (Vertex Pharmaceuticals Incorporated, priority 2004, dated 2012).

Tests used:
[1] = molecular target: T1, Rlk (Homo sapiens, UniProt P42681); assay: RLK inhibition assay, standard coupled enzyme assay; format: biochemical; conditions: 100 μM ATP, 40 nM Rlk, 30° C.
T1 sequence (P42681 1-527): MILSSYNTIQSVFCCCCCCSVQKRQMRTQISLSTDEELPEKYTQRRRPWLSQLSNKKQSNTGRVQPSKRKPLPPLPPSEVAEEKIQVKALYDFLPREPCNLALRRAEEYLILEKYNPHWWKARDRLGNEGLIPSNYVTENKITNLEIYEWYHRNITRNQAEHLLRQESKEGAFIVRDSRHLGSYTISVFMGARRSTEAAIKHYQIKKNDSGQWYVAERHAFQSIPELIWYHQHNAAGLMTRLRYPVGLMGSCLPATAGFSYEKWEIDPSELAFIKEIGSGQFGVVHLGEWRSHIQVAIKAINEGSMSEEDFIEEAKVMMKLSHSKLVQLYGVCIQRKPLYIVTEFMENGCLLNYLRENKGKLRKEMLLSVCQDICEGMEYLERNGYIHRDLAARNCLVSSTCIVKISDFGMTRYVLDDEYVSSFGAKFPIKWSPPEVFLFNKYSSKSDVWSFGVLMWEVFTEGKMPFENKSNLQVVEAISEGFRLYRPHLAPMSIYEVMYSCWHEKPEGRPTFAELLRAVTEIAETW
Protocol: Compounds were screened for their ability to inhibit Rlk using a standard coupled enzyme assay (Fox et al., Protein Sci., (1998) 7, 2249). Assays were carried out in a mixture of 20 mM MOPS (pH 7.0), 10 mM MgCl2, 0.1% BSA and 1 mM DTT. Final substrate concentrations in the assay were 100 μM ATP (Sigma Chemicals) and 10 μM peptide (Poly Glu:Tyr 4:1). Assays were carried out at 30° C. and in the presence of 40 nM Rlk. Final concentrations of the components of the coupled enzyme system were 2.5 mM phosphoenolpyruvate, 300 μM NADH, 30 μg/ml pyruvate kinase and 10 μg/ml lactate dehydrogenase.
An assay stock buffer solution was prepared containing all of the reagents listed above, with the exception of ATP and the test compound of interest. 60 μl of the stock solution was placed in a 96 well plate followed by addition of […] of DMSO stock containing serial dilutions of the test compound (typically starting from a final concentration of 7.5 μM). The plate was preincubated for 10 minutes at 30° C. and the reaction initiated by addition of 5 μl of ATP. Initial reaction rates were determined with a Molecular Devices SpectraMax Plus plate reader over a 10 minute time course. IC50 and Ki data were calculated from non-linear regression analysis using the Prism software package (GraphPad Prism version 3.0cx for Macintosh, GraphPad Software, San Diego Calif., USA).

[2] = molecular target: T2, Itk (Homo sapiens, UniProt Q08881); assay: ITK inhibition assay, radioactive-phosphate incorporation; format: biochemical; conditions: [γ-33P]ATP, SAM68 peptide, 25° C.
T2 sequence (Q08881 1-620): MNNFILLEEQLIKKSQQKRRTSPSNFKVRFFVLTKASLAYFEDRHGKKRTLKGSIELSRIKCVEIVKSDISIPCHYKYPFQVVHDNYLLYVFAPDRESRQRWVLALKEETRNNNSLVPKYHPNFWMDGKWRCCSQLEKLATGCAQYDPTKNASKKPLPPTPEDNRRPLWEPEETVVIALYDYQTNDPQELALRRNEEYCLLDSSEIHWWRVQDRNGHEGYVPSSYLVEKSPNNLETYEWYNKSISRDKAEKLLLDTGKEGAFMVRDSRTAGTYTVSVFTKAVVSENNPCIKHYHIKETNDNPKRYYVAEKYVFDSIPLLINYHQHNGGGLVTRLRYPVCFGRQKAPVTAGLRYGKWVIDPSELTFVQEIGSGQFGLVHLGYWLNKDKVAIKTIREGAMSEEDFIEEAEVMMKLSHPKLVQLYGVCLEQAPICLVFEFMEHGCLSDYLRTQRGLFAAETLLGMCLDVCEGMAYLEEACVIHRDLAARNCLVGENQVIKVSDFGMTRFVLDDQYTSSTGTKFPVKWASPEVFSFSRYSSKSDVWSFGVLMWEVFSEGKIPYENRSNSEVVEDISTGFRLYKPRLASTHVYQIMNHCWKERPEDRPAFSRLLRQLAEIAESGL
Protocol: Assays were carried out in a mixture of 20 mM MOPS (pH 7.0), 10 mM MgCl2, 0.1% BSA and 1 mM DTT. […] Assays were carried out at 25° C. in the presence of 50 nM Itk. An assay stock buffer solution was prepared containing all of the reagents listed above, with the exception of ATP and the test compound of interest.
The reaction was stopped after 10 minutes by the addition of […] 0.2M phosphoric acid+0.01% TWEEN 20. A multiscreen phosphocellulose filter 96-well plate (Millipore, Cat no. MAPHN0B50) was pretreated with 100 μL 0.2M phosphoric acid+0.01% TWEEN 20 prior to the addition of […] of the stopped assay mixture. The plate was washed with 4×200 μL 0.2M phosphoric acid+0.01% TWEEN 20.
Ki(app) data were calculated from non-linear regression analysis of the initial rate data using the Prism software package (GraphPad Prism version 3.0cx for Macintosh, GraphPad Software, San Diego Calif., USA).

| SMILES | Ki [1] [nM] | Ki [2] [nM] |
| --- | --- | --- |
| CNc1cc(-c2c[nH]c(=O)c(NC(=O)c3ccc(C(C)(C)C)cc3)c2)ncn1 [II-17] | > 1000 | < 100 |
| CNc1cncc(-c2c[nH]c(=O)c(NC(=O)c3ccc(N4CC[C@@H](N(C)C)C4)cc3)c2)n1 [II-166] | > 1000 | < 100 |
| CNc1cc(C#N)cc(-c2c[nH]c(=O)c(NC(=O)c3ccc(N4CCNCC4)cc3)c2)n1 [II-160] | > 1000 | < 100 |
| CNc1cc(F)cc(-c2c[nH]c(=O)c(NC(=O)c3ccc(N4CCC[C@H]4CN4CCCC4)cc3)c2)n1 [II-171] | > 1000 | < 100 |
| CNc1cc(-c2c[nH]c(=O)c(NC(=O)c3ccc(N4CCCCC4)cc3)c2)ccn1 [II-115] | > 1000 |  |
| CNCCNc1cccc(-c2c[nH]c(=O)c(NC(=O)c3ccc(C(C)(C)C)cc3)c2)n1 [II-35] | < 1000 | < 100 |
| CC(C)c1ccc(NC(=O)c2cc(-c3ccncc3)c[nH]c2=O)cc1 [III-4] | > 1000 | 100 to 1000 |
| CNCCNc1cc(-c2c[nH]c(=O)c(NC(=O)c3ccc(C(C)(C)C)cc3)c2)ncn1 [II-38] | > 1000 | 100 to 1000 |
| CNCCN(C)c1nccc(-c2c[nH]c(=O)c(NC(=O)c3ccc(N4CCCCC4)cc3)c2)n1 [II-65] | > 1000 | < 100 |
| CCN(CC)CCN1CCN(c2ccc(C(=O)Nc3cc(-c4ccncc4)c[nH]c3=O)cc2)CC1 [Compound I-74] | > 1000 | < 100 |
| O=C(Nc1cc(-c2ccncc2)c[nH]c1=O)c1ccc(N2CCNCC2)cc1 [Compound I-71] | > 1000 | < 100 |
| CC(C)(C)c1ccc(NC(=O)c2cc(-c3ccncc3)c[nH]c2=O)cc1 [III-5] | > 1000 | 100 to 1000 |
| CC(C)(C)c1ccc(C(=O)Nc2cc(C3=CC(=O)CCC3)c[nH]c2=O)cc1 [II-83] | > 1000 | 100 to 1000 |
| CNc1cncc(-c2c[nH]c(=O)c(NC(=O)c3ccc(N4CCN(CCO)CC4)cc3)c2)n1 [II-148] | > 1000 | < 100 |
| CC(C)(C)c1ccc(C(=O)Nc2cc(-c3ccnc(NC4CCCNC4)n3)c[nH]c2=O)cc1 (stereo not drawn) [II-29] | < 1000 | < 100 |
| CNc1cncc(-c2c[nH]c(=O)c(NC(=O)c3ccc(N4CCC[C@H]4CN4CCCC4)cc3)c2)c1 [II-178] | > 1000 | < 100 |
| CNc1cncc(-c2c[nH]c(=O)c(NC(=O)c3ccc(N4CCCCC4)cc3)c2)c1 [II-159] | > 1000 |  |
| CC(C)(C)c1ccc(C(=O)Nc2cc(-c3ccnc(NC4CCNC4)n3)c[nH]c2=O)cc1 (stereo not drawn) [II-30] | < 1000 | < 100 |
| CNc1cncc(-c2c[nH]c(=O)c(NC(=O)c3ccc(OCCC4CCNCC4)cc3)c2)n1 [II-143] | > 1000 | < 100 |
| CNc1nccc(-c2c[nH]c(=O)c(NC(=O)c3ccc(N4CCCCC4)cc3)c2)n1 [II-40, N-(1,2-dihydro-5-(2-(methylamino)pyrimidin-4-yl)-2-oxopyridin-3-yl)-4-(piperidin-1-yl)benzamide] | < 1000 | < 100 |
| CNc1cc(-c2c[nH]c(=O)c(NC(=O)c3ccc(N4CCCCC4)cc3)c2)ncn1 [II-46] | > 1000 |  |
| CNc1cccc(-c2c[nH]c(=O)c(NC(=O)c3ccc(N4CCCCC4)cc3)c2)n1 [II-47] | > 1000 |  |
| CNCCCN(C)Cc1ccc(C(=O)Nc2cc(-c3ccncc3)c[nH]c2=O)cc1 [Compound I-85] |  | 100 to 1000 |
| CNc1cccc(-c2c[nH]c(=O)c(NC(=O)c3ccc(OCCN4CCNCC4)cc3)c2)n1 [II-138] |  | < 100 |
| O=C(Nc1cc(-c2cccc(NCCN3CCCC3)n2)c[nH]c1=O)c1ccc(N2CCCCC2)cc1 [II-104] |  | 100 to 1000 |
| CNc1nccc(-c2c[nH]c(=O)c(NC(=O)c3ccccc3)c2)n1 [II-64] |  | < 100 |

| SMILES | Ki [1] [nM] | Ki [2] [nM] |
| --- | --- | --- |
| CN(C)c1nccc(-c2c[nH]c(=O)c(NC(=O)c3ccc(C(C)(C)C)cc3)c2)n1 [II-21] |  | 100 to 1000 |
| O=C(Nc1cc(-c2ccncc2)c[nH]c1=O)c1ccc(N2CCNCC2)nc1 [II-100] |  | 100 to 1000 |
| CNc1nccc(-c2c[nH]c(=O)c(NC(=O)c3ccc(Cc4ccccc4)cc3)c2)n1 [II-98] |  | 100 to 1000 |
| N#Cc1cncc(-c2c[nH]c(=O)c(NC(=O)c3ccc(N4CCC[C@H]4CN4CCCC4)cc3)c2)c1 [II-154] |  | 100 to 1000 |
| CC(C)(C)c1ccc(C(=O)Nc2cc(-c3cc(N[C@@H]4CCNC4)ncn3)c[nH]c2=O)cc1 [II-39] |  | 100 to 1000 |
| CNc1nccc(-c2c[nH]c(=O)c(NC(=O)c3ccc(NCCCN)cc3)c2)n1 [II-107] |  | < 100 |
| CNc1cc(-c2c[nH]c(=O)c(NC(=O)c3ccc(OCC4CCNCC4)cc3)c2)ncn1 [II-170] |  | < 100 |
| CNc1cncc(-c2c[nH]c(=O)c(NC(=O)c3ccc(NCCN4CCCC4)cc3)c2)n1 [II-162] |  | < 100 |
| CNCCOc1nccc(-c2c[nH]c(=O)c(NC(=O)c3ccc(N4CCCCC4)cc3)c2)n1 [II-76] |  | 100 to 1000 |
| CNc1cncc(-c2c[nH]c(=O)c(NC(=O)c3ccc(N4CCC[C@H]4CN4CCCC4)cc3)c2)n1 [II-145] |  | < 100 |
| CNCCN(C)c1cccc(-c2c[nH]c(=O)c(NC(=O)c3ccc(N4CCCCC4)cc3)c2)n1 [II-95] |  | 100 to 1000 |
| CCc1ccc(NC(=O)c2cc(-c3ccncc3)c[nH]c2=O)cc1 [III-7] |  | 100 to 1000 |
| O=C(Nc1cc(-c2cccc(NC3(CO)CCCC3)n2)c[nH]c1=O)c1ccc(N2CCCCC2)cc1 [II-150] |  | 100 to 1000 |
| CC(C)[C@@H](CO)Nc1cccc(-c2c[nH]c(=O)c(NC(=O)c3ccc(N4CCCCC4)cc3)c2)n1 [II-108] |  | 100 to 1000 |
| CNc1ccnc(-c2c[nH]c(=O)c(NC(=O)c3ccc(N4CCCCC4)cc3)c2)n1 [II-56] |  | 100 to 1000 |
| CCNc1nccc(-c2c[nH]c(=O)c(NC(=O)c3ccc(C(C)(C)C)cc3)c2)n1 [II-22] |  | < 100 |
| CNc1cc(-c2c[nH]c(=O)c(NC(=O)c3ccc(N4CCNCC4)cc3)c2)ccn1 [II-169] |  | < 100 |
| CNc1nccc(-c2c[nH]c(=O)c(NC(=O)c3ccc(OCc4ccccc4)cc3)c2)n1 [II-97] |  | < 100 |
| CNc1cncc(-c2c[nH]c(=O)c(NC(=O)c3ccc(N(C)CCc4cnc[nH]4)cc3)c2)n1 [II-165] |  | < 100 |
| CNCCNc1cccc(-c2c[nH]c(=O)c(NC(=O)c3ccc(N4CCCCC4)cc3)c2)n1 [II-60] |  | 100 to 1000 |
| O=C(Nc1ccc(N2CCCCC2)cc1)c1cc(-c2ccncc2)c[nH]c1=O [III-44] |  | < 100 |
| CNc1nc(C)cc(-c2c[nH]c(=O)c(NC(=O)c3ccc(N4CCCCC4)cc3)c2)n1 [II-130] |  | < 100 |
| O=C(Nc1cc(-c2ccncc2)c[nH]c1=O)c1ccc(Cl)cc1 [Compound I-27] |  | 100 to 1000 |
| CN1CCN(c2ccc(NC(=O)c3cc(-c4ccncc4)c[nH]c3=O)cc2)CC1 [III-46] |  | < 100 |
| O=C(Nc1cc(-c2cccc(NCCO)n2)c[nH]c1=O)c1ccc(N2CCCCC2)cc1 [II-70] |  | 100 to 1000 |
